From patent publication US7601751B2, “Indole acetic acid acyl guanidines as β-secretase inhibitors” (Bristol-Myers Squibb Company, priority 2005, dated 2009)

Molecular target: T1, BACE1 enzyme (Homo sapiens, UniProt P56817)
T1 construct: The HEK293-9B.A1 cell line, which overexpresses the BACE1 enzyme, was derived from HEK293 cells; endogenous in cells; washed membrane pellet / cell homogenate
Assay: Radioligand displacement assay with a radiolabeled BACE inhibitor on HEK293-9B.A1 cell homogenate
Format: binding
Conditions: HEK293-9B.A1 cell homogenate overexpressing BACE1, 1 nM radioligand, pH 5.0, 1.5 hr at 25° C., read-out: Activity Rating (activity based on IC50 values)
Experimental: Radioligand displacement assays with a radiolabeled BACE inhibitor (WO 2004 013098, compound 3, where the methoxy group is substituted for C(^3H)3) were carried out using standard methods (Keen, M. (1999) in Receptor Binding Techniques (Walker, J. M. ed) p. 106 Humana Press, Totowa, N.J.). The HEK293-9B.A1 cell line, which overexpresses the BACE1 enzyme, was derived from HEK293 cells (Simmons, N. L. (1990) A cultured human renal epithelioid cell line responsive to vasoactive intestinal peptide. Exp. Physiol. 75:309-19.) by RAGE™ (Harrington, J. J. et al. (2001) Creation of genome-wide protein expression libraries using random activation of gene expression. Nat. Biotechnol. 19:440-5; U.S. Pat. No. 6,410,266 and 6,361,972). T225 flask cultures of HEK293-9B.A1 were grown to 80% confluency in DMEM supplemented with 2 mM L-glutamine, 10 μg/ml penecillin, 10 μg/ml streptomycin, 3 μg/ml puromycin, 100 nM methotrexate, and 10% fetal bovine serun (Invitrogen, Carlsbad, Calif.), harvested, and resuspended at 2×10^8 cells per 10 ml of lysis buffer consisting of 50 mM HEPES pH 7.0 containing a protease inhibitor cocktail of AEBSF 104 μM, aprotinin 80 nM, leupeptin 2 μM, bestatin 4 μM, pepstatin A 1.5 μM, and E-64 1.4 μM (0.1% of protease inhibitor cocktail P8340, Sigma-Aldrich, St. Louis, Mo.) at 4° C. The resuspended cells were homogenized using a Polytron (Brinkman, Westbury, N.Y.) at setting 6 for 10 sec., then centrifuged at 48,000×g for 10 min. The resulting pellet was washed by repeating the resuspension, homogenization and centrifugation steps. The final pellet was resuspended in buffer at 4° C. to yield a total protein concentration of 5 mg/ml, then aliquots were frozen in liquid nitrogen for further storage at −70° C. Immediately before carrying out a binding assay, an aliquot of cell homogenate was thawed and diluted to a concentration of 100 μg/ml in assay buffer consisting of 50 mM HEPES pH 5.0 and 0.1% CHAPSO. Assays were initiated in polypropylene 96-well plates (Costar, Cambridge, Mass.) by the addition of 200 μl of cell homogenate to 50 μl of assay buffer containing 1 nM radioligand (WO 2004 013098, compound 3, where the methoxy group is substituted for C(^3H)3: 80 Ci/mMol) and various concentrations of unlabelled compounds, and incubated for 1.5 hr. at 25° C. Separation of bound from free radioligand was by filtration on GFF glass fiber filters (Innotech Biosystems International, Lansing, Mich.) using an Innotech cell harvester. Filters were washed three times with 0.3 ml of phosphate buffered saline pH 7.0 at 4° C. and assessed for radioactivity using a Wallac 1450 Microbeta liquid scintillation counter (PerkinElmer, Boston, Mass.). Ki values of competing compounds were derived through Cheng-Prussoff correction of IC50 values calculated using XLfit (IDBS, Guildford, UK).

T1 sequence (P56817 46-501): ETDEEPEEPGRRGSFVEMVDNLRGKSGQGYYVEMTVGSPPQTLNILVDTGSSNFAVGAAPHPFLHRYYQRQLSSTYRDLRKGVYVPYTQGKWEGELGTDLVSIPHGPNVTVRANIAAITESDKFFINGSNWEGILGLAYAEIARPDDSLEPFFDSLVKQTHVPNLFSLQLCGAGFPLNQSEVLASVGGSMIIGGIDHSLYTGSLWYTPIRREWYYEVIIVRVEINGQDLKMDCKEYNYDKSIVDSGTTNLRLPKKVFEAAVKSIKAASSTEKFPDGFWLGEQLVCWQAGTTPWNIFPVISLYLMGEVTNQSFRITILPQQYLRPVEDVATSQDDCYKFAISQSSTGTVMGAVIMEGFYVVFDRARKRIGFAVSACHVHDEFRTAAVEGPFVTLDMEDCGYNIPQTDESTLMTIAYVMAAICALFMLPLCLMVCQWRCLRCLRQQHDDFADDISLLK

Row | Compound | IC50 [nM]
1 | CC(=O)Nc1c(Cl)cc(CN/C(N)=N/C(=O)Cc2c[nH]c3cc(Br)ccc23)cc1Cl [Example 1, N-(4-{N′-[2-(6-Bromo-1H-indol-3-yl)-acetyl]-guanidinomethyl}-2,6-dichloro-phenyl)-acetamide] | 100 to 1000
2 | COc1ccc2[nH]cc(CC(=O)/N=C(\N)NCc3cc(Cl)c(NC(C)=O)c(Cl)c3)c2c1 [Example 2, N-(2,6-Dichloro-4-{N′-[2-(5-methoxy-1H-indol-3-yl)-acetyl]-guanidinomethyl}-phenyl)-acetamide] | 100 to 1000
3 | COc1ccc2[nH]cc(CC(=O)/N=C(\N)NCc3cc(Cl)cc(Cl)c3)c2c1 [Example 3, N-(3,5-Dichloro-benzyl)-N′-[2-(5-methoxy-1H-indol-3-yl)-acetyl]-guanidine] | > 1000
4 | N/C(=N\C(=O)Cc1c[nH]c2ccc(F)cc12)NCc1cc(Cl)cc(Cl)c1 [Example 4, N-(3,5-Dichloro-benzyl)-N′-[2-(5-fluoro-1H-indol-3-yl)-acetyl]-guanidine] | > 1000
5 | Cn1cc(CC(=O)/N=C(\N)NCc2cc(Cl)c(N)c(Cl)c2)c2ccccc21 [Example 5, N-((4-amino-3,5-dichlorobenzylamino)(amino)methylene)-2-(1-methyl-1H-indol-3-yl)acetamide] | > 1000
6 | N/C(=N\C(=O)Cc1cn(Cc2ccc(F)cc2)c2ccccc12)NCc1cc(Cl)c(N)c(Cl)c1 [Example 6, N-((4-amino-3,5-dichlorobenzylamino)(amino)methylene)-2-(1-(4-fluorobenzyl)-1H-indol-3-yl)acetamide] | > 1000
7 | COc1ccc2[nH]cc(CC(=O)/N=C(\N)NCc3cc(Cl)c(N)c(Cl)c3)c2c1 [Example 7, N-((4-amino-3,5-dichlorobenzylamino)(amino)methylene)-2-(5-methoxy-1H-indol-3-yl)acetamide] | > 1000
8 | CC(C(=O)/N=C(\N)NCc1cc(Cl)c(N)c(Cl)c1)c1c[nH]c2ccccc12 (stereo not shown) [Example 8, N-((4-amino-3,5-dichlorobenzylamino)(amino)methylene)-2-(1H-indol-3-yl)propanamide] | > 1000
9 | COc1ccc2[nH]cc(CC(=O)/N=C(\N)NCc3cc(C)c(NC(C)=O)c(Cl)c3)c2c1 [Example 9, N-(2-Chloro-4-{N′-[2-(5-methoxy-1H-indol-3-yl)-acetyl]-guanidinomethyl}-6-methyl-phenyl)-acetamide] | 100 to 1000
10 | COc1ccc2[nH]c(C)c(CC(=O)/N=C(\N)NCc3cc(Cl)c(NC(C)=O)c(Cl)c3)c2c1 [Example 10, N-(2,6-Dichloro-4-{N′-[2-(5-methoxy-2-methyl-1H-indol-3-yl)-acetyl]-guanidinomethyl}-phenyl)-acetamide] | 100 to 1000
11 | CC(=O)Nc1c(Cl)cc(CN/C(N)=N/C(=O)Cc2c(C)[nH]c3ccccc23)cc1Cl [Example 11, N-(2,6-Dichloro-4-{N′-[2-(2-methyl-1H-indol-3-yl)-acetyl]-guanidinomethyl}-phenyl)-acetamide] | 100 to 1000
12 | CC(=O)Nc1c(Cl)cc(CN/C(N)=N/C(=O)Cc2c[nH]c3ccc(F)cc23)cc1Cl [Example 12, N-(2,6-Dichloro-4-{N′-[2-(5-fluoro-1H-indol-3-yl)-acetyl]-guanidinomethyl}-phenyl)-acetamide] | 100 to 1000
13 | CC(=O)Nc1c(Cl)cc(CN/C(N)=N/C(=O)Cc2c[nH]c3ccc(OCc4ccccc4)cc23)cc1Cl [Example 13, N-(4-{N′-[2-(5-Benzyloxy-1H-indol-3-yl)-acetyl]-guanidinomethyl}-2,6-dichloro-phenyl)-acetamide] | > 1000
14 | CC(=O)Nc1c(Cl)cc(CN/C(N)=N/C(=O)Cc2c[nH]c3ccc(O)cc23)cc1Cl [Example 14, N-(2,6-Dichloro-4-{N′-[2-(5-hydroxy-1H-indol-3-yl)-acetyl]-guanidinomethyl}-phenyl)-acetamide] | 100 to 1000
15 | CC(=O)Nc1c(Cl)cc(CN/C(N)=N/C(=O)Cc2c[nH]c3cc(OCc4ccccc4)ccc23)cc1Cl [Example 15, N-(4-{N′-[2-(6-Benzyloxy-1H-indol-3-yl)-acetyl]-guanidinomethyl}-2,6-dichloro-phenyl)-acetamide] | 100 to 1000
16 | CC(=O)Nc1c(Cl)cc(CN/C(N)=N/C(=O)Cc2c[nH]c3cc(F)ccc23)cc1Cl [Example 16, N-(2,6-Dichloro-4-{N′-[2-(6-fluoro-1H-indol-3-yl)-acetyl]-guanidinomethyl}-phenyl)-acetamide] | 100 to 1000
17 | N/C(=N\C(=O)Cc1c[nH]c2ccc(Br)cc12)NCc1cc(Cl)c(N)c(Cl)c1 [Example 17, N-(4-Amino-3,5-dichloro-benzyl)-N′-[2-(5-bromo-1H-indol-3-yl)-acetyl]-guanidine] | > 1000
18 | CN1CCN(c2ccc(CN/C(N)=N/C(=O)Cc3c[nH]c4ccc(Br)cc34)cc2)CC1 [Example 18, N-[2-(5-Bromo-1H-indol-3-yl)-acetyl]-N′-[4-(4-methyl-piperazin-1-yl)-benzyl]-guanidine] | > 1000
19 | CN1CCN(c2ccc(CN/C(N)=N/C(=O)Cc3c[nH]c4ccc(Br)cc34)cc2Cl)CC1 [Example 19, N-[2-(5-Bromo-1H-indol-3-yl)-acetyl]-N′-[3-chloro-4-(4-methyl-piperazin-1-yl)-benzyl]-guanidine] | > 1000
20 | CC(=O)Nc1c(Cl)cc(CN/C(N)=N/C(=O)Cc2c[nH]c3ccc(Br)cc23)cc1Cl [Example 20, N-(4-{N′-[2-(5-Bromo-1H-indol-3-yl)-acetyl]-guanidinomethyl}-2,6-dichloro-phenyl)-acetamide] | < 100
21 | CC(=O)Nc1c(Cl)cc(CN/C(N)=N/C(=O)Cc2c(C)[nH]c3ccc(F)cc23)cc1Cl [Example 21] | 100 to 1000
22 | CC(=O)Nc1c(Cl)cc(CN/C(N)=N/C(=O)Cc2c(C)[nH]c3c(F)cccc23)cc1Cl [Example 22, N-(2,6-Dichloro-4-{N′-[2-(7-fluoro-2-methyl-1H-indol-3-yl)-acetyl]-guanidinomethyl}-phenyl)-acetamide] | 100 to 1000
23 | CC(=O)Nc1c(Cl)cc(CN/C(N)=N/C(=O)Cc2c[nH]c3ccc(C#N)cc23)cc1Cl [Example 23, N-(4-{N′-[2-(5-Cyano-1H-indol-3-yl)-acetyl]-guanidinomethyl}-2,6-dichloro-phenyl)-acetamide] | < 100
24 | CC(=O)Nc1c(Cl)cc(CN/C(N)=N/C(=O)Cc2c(C(=O)NC(C)(C)C)[nH]c3ccc(Br)cc23)cc1Cl [Example 24, 3-{2-[N′-(4-Acetylamino-3,5-dichloro-benzyl)-guanidino]-2-oxo-ethyl}-5-bromo-1H-indole-2-carboxylic acid tert-butylamide] | < 100
25 | CC(=O)Nc1c(Cl)cc(CN/C(N)=N/C(=O)Cc2c(C#N)[nH]c3ccc(Br)cc23)cc1Cl [Example 25, N-(4-{N′-[2-(5-Bromo-2-cyano-1H-indol-3-yl)-acetyl]-guanidinomethyl}-2,6-dichloro-phenyl)-acetamide] | < 100
